According to article PMC4226186, “Biobleaching of Industrial Important Dyes with Peroxidase Partially Purified from Garlic” (The Scientific World Journal, 2014):

Test system: T1, garlic peroxidase (Allium sativum peroxidase)
T1 construct: gene class III plant peroxidase; native, partially purified from peeled garlic (ammonium sulphate, dialysis, Sephadex G-200)
Test: absorbance change on o-dianisidine oxidation; Lineweaver-Burk plot
Type: biochemical
Conditions: co-substrate H2O2; 0.05 M sodium phosphate pH 6.0; 20-120 mM o-dianisidine; partially purified enzyme

How did the Km turn out when `COc1cc(-c2ccc(N)c(OC)c2)ccc1N` [o-dianisidine] was run?
Its Km is 25 mM.
